The values that follow come from patent publication US7803801B2, “Aminopyridine compounds having Syk inhibitory activity” (Japan Tobacco, Inc., priority 2005, dated 2010).

Assay [1] relates to cultured human mast cells. Briefly: Degranulation inhibition test using cultured human mast cells (IgE cross-linking, β-Hexosaminidase release). Conditions: Mast cell; cultured human mast cells, anti-hIgE stimulation, β-Hexosaminidase index, average; read-out: human degranulation ave. IC50. It counts as cell-based. In a few lines:
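Degranulation was triggered by anti-hIgE (10 μg/mL final, 30 min, 37 °C) after a 10-min compound pretreatment (DMSO 0.1%) of cord-blood CD34+-derived mast cells primed 5 days with IL-4 and IgE. β-Hexosaminidase in supernatant was measured with p-nitrophenyl-GlcNAc substrate (A405), expressed against water-lysed total; IC50 (M).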

Assay [2] concerns the target GST-Syk Full Protein (human) (Homo sapiens, UniProt P43405). Briefly: Syk kinase inhibition test (HTRF method). Conditions: HTRF, 100 μM ATP, 30 min room temperature, average; read-out: sykHTRF ave IC50. The assay is classed as biochemical. In a few lines: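 HTRF read-out: after EDTA termination and 1 h with XL665-streptavidin and Eu-anti-phosphotyrosine, the 665/620 nm ratio was measured. The reaction ran 30 min at 20–25 °C with final 6.4 nM human GST-Syk, 250 nM biotinylated peptide, 100 μM ATP, pH 7.0 HEPES buffer, 2% DMSO.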
(In general: TR-FRET usually uses a lanthanide donor and a delayed reading to cut background.)

In general, IC50 refers to the concentration that gives 50% inhibition. `CON(C)C(=O)c1ncc(-c2cccc(Nc3cc(C)ccn3)n2)s1` [Compound A-46, N-methoxy-N-methyl-5-[6-(4-methylpyridin-2-ylamino)pyridin-2-yl]thiazole-2-carboxamide]: the IC50 in assay [1] is 100 to 1000 nM; in assay [2] it was less than 100 nM.
For `CNC(=O)c1ncc(-c2cccc(Nc3cc(C)ccn3)n2)s1` [Compound A-47, N-methyl-5-[6-(4-methylpyridin-2-ylamino)pyridin-2-yl]thiazole-2-carboxamide], in that order: 100 to 1000 nM and less than 100 nM.
For `CC(=O)N1CCC[C@H]1c1ncc(-c2cccc(Nc3cc(C)ccn3)n2)s1` [Compound A-48] the same measures were 100 to 1000 nM and 100 to 1000 nM.
Consider `Cc1ccnc(Nc2cccc(-c3cnc([C@H](CCCCNC(=O)OC(C)(C)C)NC(=O)OCc4ccccc4)s3)n2)c1` [Compound A-49], for which the half-inhibitory concentration (IC50) in assay [1] and in assay [2] was more than 1000 nM throughout.
As to `Cc1ccnc(Nc2cccc(-c3cnc([C@H](C)N(C)C(=O)OC(C)(C)C)s3)n2)c1` [Compound A-50], the IC50 in assay [1] was more than 1000 nM; in assay [2], 100 to 1000 nM.
For `CN[C@@H](C)c1ncc(-c2cccc(Nc3cc(C)ccn3)n2)s1` [Compound A-51], in that order: 100 to 1000 nM and 100 to 1000 nM.
Turning to `CC(=O)N(C)[C@@H](C)c1ncc(-c2cccc(Nc3cc(C)ccn3)n2)s1` [Compound A-52, N-methyl-((S)-1-{5-[6-(4-methylpyridin-2-ylamino)pyridin-2-yl]thiazol-2-yl}ethyl)acetamide], the IC50 in assay [1] is 100 to 1000 nM; in assay [2], less than 100 nM.
For `Cc1ccnc(Nc2cccc(-c3cnc(C(=O)NCCCO)s3)n2)c1` [Compound A-53], in that order: 100 to 1000 nM and 100 to 1000 nM.
For `Cc1ccnc(Nc2cccc(-c3cnc(C(=O)NC(C)CO)s3)n2)c1` (centres unmarked) [Compound A-54] the same measures were more than 1000 nM and 100 to 1000 nM.
For the compound `Cc1ccnc(Nc2cccc(-c3cnc([C@@H]4CCC(=O)N4)s3)n2)c1` [Compound A-55, (S)-5-{5-[6-(4-methylpyridin-2-ylamino)pyridin-2-yl]thiazol-2-yl}pyrrolidin-2-one], the IC50 in assay [1] is 100 to 1000 nM; in assay [2] it was less than 100 nM.
For `Cc1ccnc(Nc2cccc(-c3cnc([C@H](C)NC(=O)N(C)C)s3)n2)c1` [Compound A-56], in that order: 100 to 1000 nM and 100 to 1000 nM.
For `COC(=O)N[C@@H](C)c1ncc(-c2cccc(Nc3cc(C)ccn3)n2)s1` [Compound A-57] the same measures were 100 to 1000 nM and 100 to 1000 nM.
As for `Cc1ccnc(Nc2cccc(-c3cnc([C@H](C)NS(C)(=O)=O)s3)n2)c1` [Compound A-58], the concentration for half-maximal inhibition (IC50) in assay [1] and in assay [2] was 100 to 1000 nM in each case.
As to `CC(=O)N[C@@H](CO)c1ncc(-c2cccc(Nc3cc(C)ccn3)n2)s1` [Compound A-59], the half-maximal inhibitory concentration (IC50) in assay [1] and in assay [2] was 100 to 1000 nM throughout.
For `Cc1ccnc(Nc2cccc(-c3cnc(C4CCC(=O)CC4)s3)n2)c1` [Compound A-60], the 50% inhibitory concentration (IC50) in assay [1] and in assay [2] was 100 to 1000 nM in each case.
Consider `Cc1ccnc(Nc2cccc(-c3cnc(C(=O)N4CCCC(O)C4)s3)n2)c1` (centres unmarked) [Compound A-61], for which the IC50 in assay [1] and in assay [2] was 100 to 1000 nM throughout.
Consider `Cc1ccnc(Nc2cccc(-c3cnc(C(=O)NCC(C)(C)CO)s3)n2)c1` [Compound A-62], for which the values for the IC50 in assay [1] and in assay [2] were more than 1000 nM and 100 to 1000 nM, respectively.
For `CC(=O)NCCCC[C@H](NC(C)=O)c1ncc(-c2cccc(Nc3cc(C)ccn3)n2)s1` [Compound A-64], in that order: 100 to 1000 nM and 100 to 1000 nM.
For `Cc1ccnc(Nc2cccc(-c3cnc([C@H](C)NC(C)C)s3)n2)c1` [Compound A-65], in that order: 100 to 1000 nM and 100 to 1000 nM.
For `Cc1ccnc(Nc2cccc(-c3cnc(C(=O)NCC(C)O)s3)n2)c1` (centres unmarked) [Compound A-66], in that order: more than 1000 nM and 100 to 1000 nM.
Consider `Cc1ccnc(Nc2cccc(-c3cnc(C(=O)NC4CCCCC4O)s3)n2)c1` (centres unmarked) [Compound A-67], for which the IC50 was more than 1000 nM in assay [1] and 100 to 1000 nM in assay [2].
Turning to `COC(=O)CCCCc1ncc(-c2cccc(Nc3cc(C)ccn3)n2)s1` [Compound A-68], the results for the IC50 in assay [1] and in assay [2] were more than 1000 nM and 100 to 1000 nM, respectively.
For `Cc1ccnc(Nc2cccc(-c3cnc(CCCCC(=O)O)s3)n2)c1` [Compound A-69, 5-{5-[6-(4-methylpyridin-2-ylamino)pyridin-2-yl]thiazol-2-yl}pentanoic acid] the same measures were more than 1000 nM and less than 100 nM.
For `Cc1ccnc(Nc2cccc(-c3cnc(CCCCCO)s3)n2)c1` [Compound A-70, 5-{5-[6-(4-methylpyridin-2-ylamino)pyridin-2-yl]thiazol-2-yl}pentan-1-ol], in that order: 100 to 1000 nM and less than 100 nM.
With `Cc1ccnc(Nc2cccc(-c3cnc(CCCCC(N)=O)s3)n2)c1` [Compound A-71, 5-{5-[6-(4-methylpyridin-2-ylamino)pyridin-2-yl]thiazol-2-yl}pentanamide], the results for the concentration for half-maximal inhibition (IC50) in assay [1] and in assay [2] were 100 to 1000 nM and less than 100 nM, respectively.
For `Cc1ccnc(Nc2cccc(-c3cnc(C(=O)NC(CO)CO)s3)n2)c1` [Compound A-72], in that order: more than 1000 nM and 100 to 1000 nM.
For `Cc1ccnc(Nc2cccc(-c3cnc(C4CCC(O)CC4)s3)n2)c1` (centres unmarked) [Compound A-73, 4-{5-[6-(4-methylpyridin-2-ylamino)pyridin-2-yl]thiazol-2-yl}cyclohexanol], in that order: 100 to 1000 nM and less than 100 nM.
As for `Cc1ccnc(Nc2cccc(-c3cnc(C4CCC(=NO)CC4)s3)n2)c1` (centres unmarked) [Compound A-74, 4-{5-[6-(4-methylpyridin-2-ylamino)pyridin-2-yl]thiazol-2-yl}cyclohexanone oxime], the IC50 was more than 1000 nM in assay [1] and less than 100 nM in assay [2].
For `C[C@H](N)c1ncc(-c2cccc(Nc3cc(-c4ccncc4)ccn3)n2)s1` [Compound A-75, N-{6-[2-((S)-1-aminoethyl)thiazol-5-yl]pyridin-2-yl}-N-([4,4′]bipyridinyl-2-yl)amine] the same measures were 100 to 1000 nM and less than 100 nM.
Consider `COc1ccnc(Nc2cccc(-c3cnc([C@H](C)N)s3)n2)c1` [Compound A-76], for which the IC50 in assay [1] and in assay [2] was 100 to 1000 nM in each case.
As for `COc1ccnc(Nc2cccc(-c3cnc([C@H](C)NC(C)=O)s3)n2)c1` [Compound A-77], the IC50 in assay [1] and in assay [2] was 100 to 1000 nM each time.
For `Cc1ccnc(Nc2cccc(-c3cnc([C@@H](O)CO)s3)n2)c1` [Compound A-78], the IC50 in assay [1] and in assay [2] was 100 to 1000 nM in each case.
Take `CC(=O)N[C@@H](C)c1ncc(-c2cccc(Nc3cc(-c4ccncc4)ccn3)n2)s1` [Compound A-79, N—((S)-1-{5-[6-([4,4′]bipyridinyl-2-ylamino)pyridin-2-yl]thiazol-2-yl}ethyl)acetamide]: the IC50 in assay [1] is 100 to 1000 nM; in assay [2], less than 100 nM.
With `CC(=O)N[C@@H](C)c1ncc(-c2cccc(Nc3cc(OCc4ccccc4)ccn3)n2)s1` [Compound A-80], the IC50 in assay [1] and in assay [2] was 100 to 1000 nM each time.
